Laboratory results reported in patent US20230293539A1, “MLL1-WDR5 PROTEIN-PROTEIN INTERACTION INHIBITOR COMPOUNDS AND USES THEREOF” (HUYABIO International, LLC, priority 2022, published 2023).

Legend:
[1] = Metabolite ID in Liver S9; format: in vitro ADME; conditions: HBI-2375 and metabolites in Monkey liver S9
Liver S9 stability assay [2] = format: in vitro ADME, dog
Protocol: (§1) Liver S9 stability assay: Test compounds (1 μM) and positive control were incubated with 5 mM GSH and liver S9 (1 mg protein/ml) from multiple species (including human, monkey, dog, rat and mouse) at 37° C. at 0, 10, 30, and 60 minutes in duplicate. After adding the stop solution, 100 μL of supernatant were analyzed by LC-MS/MS. The % remaining of test compound, T1/2 (min), and CLint (μL/min/mg) were calculated and were reported.

BRDT-BD1 = biological target: T1, BRDT-BD1 (Homo sapiens, UniProt Q58F21); assay: Selectivity panel (Table 3); format: binding
T1 construct: BRDT-BD1

Metabolite ID in plasma [3] = format: in vitro ADME; conditions: HBI-2375 and metabolites in Monkey plasma
Liver S9 stability assay [4] = format: in vitro ADME, mouse
Protocol: as §1

WIP 1 = WIP 1 (Homo sapiens, UniProt O15297); assay: Selectivity panel (Table 3); format: biochemical
Metabolite ID in plasma [5] = format: in vitro ADME; conditions: HBI-2375 and metabolites in Human plasma
[6] = WBS (whole blood stability) assay; format: in vitro ADME; conditions: for % Remaining after 60 min incubation: 2 μM, 37° C.
Protocol: WBS (whole blood stability) assay: The blood samples were collected freshly from multiple species including human, monkey, dog, rat and mouse. 2 μM of test compound and positive control were incubated with the whole blood at 37° C. at 0, 10, 30, 60, and 120 minutes in duplicate. After adding the stop solution, 200 μL of supernatant were analyzed by LC-MS/MS. The % remaining of test compound and T1/2 (min) were calculated and reported.

in vitro [7] = conditions: human, plasma
in vitro [8] = conditions: mouse, plasma
CD73 = CD73 (Homo sapiens, UniProt P21589); assay: Selectivity panel (Table 3); format: biochemical
KRAS WT = KRAS WT (Homo sapiens, UniProt P01116); assay: Selectivity panel (Table 3); format: binding
HDAC3 = HDAC3 (Homo sapiens, UniProt O15379); assay: Selectivity panel (Table 3); format: biochemical
in vitro [9] = conditions: rat, plasma
TEAD1 = TEAD1 (Homo sapiens, UniProt P28347); assay: Selectivity panel (Table 3); format: binding
SHP2 D61G = SHP2 D61G (Homo sapiens, UniProt Q06124, D61G); assay: Selectivity panel (Table 3); format: biochemical
SHP2 WT = SHP2 WT (Homo sapiens, UniProt Q06124); assay: Selectivity panel (Table 3); format: biochemical
in vitro [10] = conditions: dog, plasma
[11] = Predicted brain concentrations based on mouse/rat PK/BBB data; conditions: Equivalent Human 6.5 mg/kg
Protocol: The ability of a compound of Formula (IIIb) (HBI_084 (HBI-2375)) to cross the BBB is determined in a population comprising one or more human subjects by orally (PO) or intravenously (IV) administering a pharmaceutical composition comprising a compound of Formula (IIIb) to the individual members of the population of human subjects at one or more doses described in Example 5. Blood samples and CSF are drawn from the subjects and compound concentrations are determined in the blood plasma and CSF of the subjects as described in Example 4. Pharmacokinetic parameters are determined by means analogous to those described in Examples 1-4. Doses for HBI-2375 may be based on a target concentration in subjects' brain predicted using the following table.

Metabolite ID in plasma [12] = format: in vitro ADME; conditions: HBI-2375 and metabolites in Rat plasma
[13] = Metabolite ID in Liver S9; format: in vitro ADME; conditions: HBI-2375 and metabolites in Human liver S9
Dog PK (oral) = format: in vivo, Beagle dogs; conditions: for Cmax / AUC(0-t) / half-life: Beagle, plasma
Protocol: Dog PK: Fasted or fed non-naïve Beagle dogs (Marshall Bioresources, Beijing, China) were administered a single intravenous bolus or oral gavage administration of test compounds at respective doses. Blood samples for plasma isolation were collected from a peripheral vessel, from restrained, non-sedated animals at the respective sampling time points. The quantification of compound concentrations in dog plasma was quantified using LC-MS/MS method. Plasma concentration versus time data was analyzed by non-compartmental mode approaches using the WinNonlin software program (version 6.3 or above, Pharsight). Pharmacokinetic parameters, including C0, CL, Vdss, Cmax, Tmax T1/2, AUC0-last, AUC0-inf, MRT0-last, MRT0-inf, bioavailability (%) for IV and PO groups were calculated. See FIGS. 9A, […], 9C and FIGS. 10A, 10B, 10C, and 10D.

TEAD4 = TEAD4 (Homo sapiens, UniProt Q15561); assay: Selectivity panel (Table 3); format: binding
PTP1B = PTP1B (Homo sapiens, UniProt P18031); assay: Selectivity panel (Table 3); format: biochemical
KRAS G12D = KRAS G12D (Homo sapiens, UniProt P01116, G12D); assay: Selectivity panel (Table 3); format: binding
Sequence of KRAS G12D (P01116 1-188 isoform P01116-2 G12D): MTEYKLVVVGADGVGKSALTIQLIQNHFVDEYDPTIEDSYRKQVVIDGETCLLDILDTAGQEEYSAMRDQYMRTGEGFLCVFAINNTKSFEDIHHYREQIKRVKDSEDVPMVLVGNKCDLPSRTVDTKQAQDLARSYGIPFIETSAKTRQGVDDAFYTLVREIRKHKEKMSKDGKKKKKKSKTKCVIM

Sequence of TEAD4 (Q15561 whole entry, species assumed): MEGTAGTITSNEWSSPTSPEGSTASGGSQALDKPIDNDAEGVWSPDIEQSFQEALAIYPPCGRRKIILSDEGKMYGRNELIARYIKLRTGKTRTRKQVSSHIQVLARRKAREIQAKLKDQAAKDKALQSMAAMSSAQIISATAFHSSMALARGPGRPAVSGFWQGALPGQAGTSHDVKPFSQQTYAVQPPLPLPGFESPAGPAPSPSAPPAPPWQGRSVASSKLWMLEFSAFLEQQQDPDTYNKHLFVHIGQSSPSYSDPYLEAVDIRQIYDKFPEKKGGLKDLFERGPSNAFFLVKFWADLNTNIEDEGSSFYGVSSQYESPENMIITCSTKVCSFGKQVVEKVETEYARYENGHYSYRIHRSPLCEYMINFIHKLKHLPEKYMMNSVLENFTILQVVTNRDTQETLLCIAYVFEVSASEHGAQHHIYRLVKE
Sequence of CD73 (P21589 27-549, species assumed): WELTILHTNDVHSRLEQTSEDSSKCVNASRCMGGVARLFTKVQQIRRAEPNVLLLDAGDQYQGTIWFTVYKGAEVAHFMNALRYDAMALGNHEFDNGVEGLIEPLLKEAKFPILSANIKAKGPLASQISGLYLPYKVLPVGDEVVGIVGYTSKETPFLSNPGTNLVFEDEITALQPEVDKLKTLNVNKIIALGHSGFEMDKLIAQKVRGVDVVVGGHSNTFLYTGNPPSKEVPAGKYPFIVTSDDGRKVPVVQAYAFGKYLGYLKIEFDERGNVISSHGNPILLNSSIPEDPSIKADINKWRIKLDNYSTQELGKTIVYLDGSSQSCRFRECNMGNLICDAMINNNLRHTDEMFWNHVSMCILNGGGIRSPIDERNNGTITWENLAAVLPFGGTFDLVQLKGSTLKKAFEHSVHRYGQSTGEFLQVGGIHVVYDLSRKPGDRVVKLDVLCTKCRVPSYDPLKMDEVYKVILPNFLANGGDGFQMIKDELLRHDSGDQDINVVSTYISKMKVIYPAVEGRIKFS
Sequence of PTP1B (P18031 whole entry, species assumed): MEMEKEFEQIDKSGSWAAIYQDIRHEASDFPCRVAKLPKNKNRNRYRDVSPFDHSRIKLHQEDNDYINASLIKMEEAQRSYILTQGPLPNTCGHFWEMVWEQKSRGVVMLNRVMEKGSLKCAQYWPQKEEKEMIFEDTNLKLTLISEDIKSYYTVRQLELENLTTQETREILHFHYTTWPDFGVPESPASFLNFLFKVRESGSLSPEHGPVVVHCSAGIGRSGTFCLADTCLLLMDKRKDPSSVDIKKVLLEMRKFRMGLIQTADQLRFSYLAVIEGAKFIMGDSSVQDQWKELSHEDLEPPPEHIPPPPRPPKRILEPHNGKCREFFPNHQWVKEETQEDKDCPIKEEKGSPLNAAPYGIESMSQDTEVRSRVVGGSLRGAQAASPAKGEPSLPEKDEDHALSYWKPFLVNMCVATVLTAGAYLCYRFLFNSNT
Sequence of HDAC3 (O15379 whole entry, species assumed): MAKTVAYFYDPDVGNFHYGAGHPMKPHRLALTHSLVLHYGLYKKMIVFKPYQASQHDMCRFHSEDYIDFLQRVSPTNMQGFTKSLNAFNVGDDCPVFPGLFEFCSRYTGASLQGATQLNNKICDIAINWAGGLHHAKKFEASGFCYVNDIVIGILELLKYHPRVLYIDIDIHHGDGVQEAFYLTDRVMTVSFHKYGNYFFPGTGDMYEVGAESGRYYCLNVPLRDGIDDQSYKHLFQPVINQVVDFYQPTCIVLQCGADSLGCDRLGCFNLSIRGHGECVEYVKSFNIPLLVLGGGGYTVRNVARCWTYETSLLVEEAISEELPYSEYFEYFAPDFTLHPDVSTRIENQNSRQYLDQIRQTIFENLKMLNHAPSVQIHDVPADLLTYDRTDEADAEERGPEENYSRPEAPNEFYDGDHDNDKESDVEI
Sequence of HDAC3 (Q9Y618 395-489 partner limits assumed, species assumed): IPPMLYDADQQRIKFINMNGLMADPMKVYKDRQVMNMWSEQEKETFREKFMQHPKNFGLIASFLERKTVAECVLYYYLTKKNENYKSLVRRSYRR
Sequence of WIP 1 (O15297 whole entry, species assumed): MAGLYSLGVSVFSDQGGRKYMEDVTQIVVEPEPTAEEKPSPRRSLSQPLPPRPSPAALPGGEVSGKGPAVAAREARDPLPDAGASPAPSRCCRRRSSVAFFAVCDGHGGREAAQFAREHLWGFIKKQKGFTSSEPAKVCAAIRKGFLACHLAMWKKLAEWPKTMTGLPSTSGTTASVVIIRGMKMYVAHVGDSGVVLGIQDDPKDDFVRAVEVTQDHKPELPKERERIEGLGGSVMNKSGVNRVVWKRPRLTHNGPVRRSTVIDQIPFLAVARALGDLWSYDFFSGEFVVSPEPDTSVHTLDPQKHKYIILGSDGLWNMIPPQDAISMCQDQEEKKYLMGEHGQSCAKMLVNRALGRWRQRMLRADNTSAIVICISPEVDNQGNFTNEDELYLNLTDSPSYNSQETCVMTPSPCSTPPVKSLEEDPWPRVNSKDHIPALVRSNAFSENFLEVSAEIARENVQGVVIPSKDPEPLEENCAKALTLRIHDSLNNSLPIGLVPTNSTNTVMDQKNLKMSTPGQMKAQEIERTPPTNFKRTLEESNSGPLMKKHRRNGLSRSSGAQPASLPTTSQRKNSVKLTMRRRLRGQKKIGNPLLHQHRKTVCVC
Sequence of SHP2 WT (Q06124 whole entry): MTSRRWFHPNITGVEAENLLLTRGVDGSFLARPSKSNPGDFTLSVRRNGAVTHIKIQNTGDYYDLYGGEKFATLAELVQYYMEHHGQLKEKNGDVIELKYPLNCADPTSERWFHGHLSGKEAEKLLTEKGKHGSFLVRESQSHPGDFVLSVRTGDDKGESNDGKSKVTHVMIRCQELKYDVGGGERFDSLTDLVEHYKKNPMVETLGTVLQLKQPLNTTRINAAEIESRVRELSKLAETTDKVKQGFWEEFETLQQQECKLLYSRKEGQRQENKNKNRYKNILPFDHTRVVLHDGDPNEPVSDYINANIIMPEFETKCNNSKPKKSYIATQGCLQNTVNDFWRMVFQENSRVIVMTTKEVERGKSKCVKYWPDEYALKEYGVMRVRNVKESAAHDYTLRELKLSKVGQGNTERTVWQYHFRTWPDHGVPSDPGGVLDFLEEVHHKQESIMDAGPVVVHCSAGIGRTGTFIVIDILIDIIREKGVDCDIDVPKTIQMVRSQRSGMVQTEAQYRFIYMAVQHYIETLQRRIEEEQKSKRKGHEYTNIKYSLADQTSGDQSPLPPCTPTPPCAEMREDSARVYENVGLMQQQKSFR
Sequence of SHP2 D61G (Q06124 whole entry D61G): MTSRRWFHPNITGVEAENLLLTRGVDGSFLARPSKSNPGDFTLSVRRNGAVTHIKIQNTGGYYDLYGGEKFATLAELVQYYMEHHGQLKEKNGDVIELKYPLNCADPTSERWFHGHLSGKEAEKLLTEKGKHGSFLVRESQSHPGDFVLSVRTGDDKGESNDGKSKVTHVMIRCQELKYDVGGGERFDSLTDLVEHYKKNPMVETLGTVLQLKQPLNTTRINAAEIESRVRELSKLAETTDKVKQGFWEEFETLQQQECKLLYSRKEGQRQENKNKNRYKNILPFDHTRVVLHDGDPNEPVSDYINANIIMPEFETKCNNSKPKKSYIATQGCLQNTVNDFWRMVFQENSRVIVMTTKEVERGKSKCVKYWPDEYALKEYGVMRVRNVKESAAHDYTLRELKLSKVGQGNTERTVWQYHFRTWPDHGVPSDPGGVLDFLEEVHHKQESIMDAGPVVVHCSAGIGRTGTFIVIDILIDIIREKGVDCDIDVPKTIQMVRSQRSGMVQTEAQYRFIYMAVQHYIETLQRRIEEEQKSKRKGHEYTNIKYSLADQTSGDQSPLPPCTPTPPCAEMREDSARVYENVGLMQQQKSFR
Sequence of KRAS WT (P01116 1-188 isoform P01116-2): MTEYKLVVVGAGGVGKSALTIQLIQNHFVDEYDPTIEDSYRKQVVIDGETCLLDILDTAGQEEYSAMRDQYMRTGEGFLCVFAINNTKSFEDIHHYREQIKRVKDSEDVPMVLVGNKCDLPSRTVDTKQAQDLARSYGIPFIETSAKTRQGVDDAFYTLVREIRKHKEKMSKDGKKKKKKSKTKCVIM
Sequence of TEAD1 (P28347 whole entry, species assumed): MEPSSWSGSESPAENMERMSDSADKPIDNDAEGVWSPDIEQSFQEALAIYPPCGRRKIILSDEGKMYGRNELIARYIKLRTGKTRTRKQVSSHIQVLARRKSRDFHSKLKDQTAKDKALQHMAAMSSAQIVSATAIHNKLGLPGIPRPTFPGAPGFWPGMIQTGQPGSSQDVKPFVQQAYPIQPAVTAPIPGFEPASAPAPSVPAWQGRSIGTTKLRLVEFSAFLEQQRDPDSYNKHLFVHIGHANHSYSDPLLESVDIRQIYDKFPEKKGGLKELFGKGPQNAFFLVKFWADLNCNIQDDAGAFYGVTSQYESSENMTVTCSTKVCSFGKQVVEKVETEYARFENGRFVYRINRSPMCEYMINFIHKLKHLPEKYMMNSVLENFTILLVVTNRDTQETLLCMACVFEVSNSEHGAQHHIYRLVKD

## Cc1c(F)c(N)cc(C(=O)Nc2cc(-n3cc(C(=O)N4CCN(C)CC4)nn3)c(F)cc2N2C[C@@H](C)N(C)[C@@H](C)C2)c1Cl [HYBI-084, 5-amino-2-chloro-4-fluoro-N-(4-fluoro-5-(4-(4-methylpiperazine-1-carbonyl)-1H-1,2,3-triazol-1-yl)-2-((3S,5R)-3,4,5-trimethylpiperazin-1-yl)phenyl)-3-methylbenzamide]
[1]
  Relative Abundance (UV Peak Area % Total): 34.68%
Liver S9 stability assay [2]; Dog liver S9
  half-life at 1 μM: > 145 min
  microsomal CLint at 1 μM: < 4.8 µL/min/mg
Liver S9 stability assay [2]; Dog liver S9, 1 μM, 5 mM GSH, 37° C.
  % Remaining after 60 min incubation: 92.5%
BRDT-BD1
  IC50: > 1000 nM
Metabolite ID in plasma [3]
  Relative Abundance (UV Peak Area % Total): 97.58%
Liver S9 stability assay [4]; Mouse liver S9
  half-life at 1 μM: > 145 min
  microsomal CLint at 1 μM: < 4.8 µL/min/mg
Liver S9 stability assay [4]; Mouse liver S9, 1 μM, 5 mM GSH, 37° C.
  % Remaining after 60 min incubation: 110%
WIP 1
  IC50: > 1000 nM
Metabolite ID in plasma [5]
  Relative Abundance (UV Peak Area % Total): 97.20%
[6]; Dog whole blood
  half-life at 2 μM: > 144 min
  % Remaining after 60 min incubation: 94.6%
[6]; Human whole blood
  half-life at 2 μM: 616 min
  % Remaining after 60 min incubation: 110%
[6]; Mouse whole blood
  half-life at 2 μM: > 144 min
  % Remaining after 60 min incubation: 108%
[6]; Rat whole blood
  half-life at 2 μM: > 144 min
  % Remaining after 60 min incubation: 109%
In vitro [7]
  fraction unbound: < 0.07
In vitro [8]
  fraction unbound: < 0.07
CD73
  IC50: > 1000 nM
KRAS WT
  IC50: > 1000 nM
HDAC3
  IC50: > 1000 nM
In vitro [9]
  fraction unbound: < 0.07
TEAD1
  IC50: > 1000 nM
SHP2 D61G
  IC50: > 1000 nM
SHP2 WT
  IC50: > 1000 nM
In vitro [10]
  fraction unbound: < 0.24
[11]; estimated from repeated PO mouse
  Predicted Mean Brain Concentration, Cmin = 24 h: 11.1 ng/g
[11]; estimated from single PO mouse
  Predicted Mean Brain Concentration, Cmin = 24 h: 4.5 ng/g
[11]; estimated from single PO rat
  Predicted Mean Brain Concentration, Cmin = 24 h: 3.6 ng/g
Metabolite ID in plasma [12]
  Relative Abundance (UV Peak Area % Total): 93.47%
[13]
  Relative Abundance (UV Peak Area % Total): 78.70%
Dog PK (oral); 1.5 mpk
  F: 11.4%
Dog PK (oral); 4.5 mpk
  F: 37.7%
Dog PK (oral); 1.5 mg/kg, 1.5 mpk
  Cmax: 8.4 nM
  AUC(0-t): 0.0466 µM·h
  half-life: 450 min
Dog PK (oral); 4.5 mg/kg, 4.5 mpk
  Cmax: 47.6 nM
  AUC(0-t): 0.459 µM·h
  half-life: 378 min
TEAD4
  IC50: > 1000 nM
PTP1B
  IC50: > 1000 nM
KRAS G12D
  IC50: > 1000 nM
